Some test systems named below: 786-0 renal; A549 NSCLC; EKVX NSCLC; HCT-116 colon; HL-60(TB) leukemia; HOP-92 NSCLC; NCI-H522 lung; SF-295 CNS; SR leukemia; SK-MEL-28 melanoma.
Common to all, as to assay: growth of human tumour cells (NCI), 48 h

SMILES strings stand for the structures. Values joined by “and” are separate entries in the source; they are usually repeats but may differ in a detail not shown here. Equal values may be shown once.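 48-hour exposure; five concentrations; linearly interpolated endpoints. GI50 is the concentration that inhibits growth by half. TGI denotes the concentration required for complete inhibition of growth.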

Regarding `COC(=O)/C(=C/c1ccc(OC)cc1)C(C(=O)O)=C1CCCCC1`, the TGI in the test on 786-0 renal, with A549 NSCLC, in the test on EKVX NSCLC, with HCT-116 colon, with HL-60(TB) leukemia and in the test with HOP-92 NSCLC was greater than 100 µM in each case. In addition, the TGI with NCI-H522 lung, with SF-295 CNS and in the test on SR leukemia was greater than 100 µM throughout.
`CCCCCCCCCC(=O)NC(Cc1ccc(O)cc1)C(=O)NCCCNCCCCNCCCNC(=O)[C@@H](N)CCCN=C(N)N` (some centres not stated): the TGI in the test on 786-0 renal was greater than 100 µM; with A549 NSCLC it was greater than 100 µM; in the test with EKVX NSCLC, greater than 100 µM; with HCT-116 colon it was greater than 100 µM; in the test with HL-60(TB) leukemia, 48.1 µM; in the test with NCI-H522 lung it was 69.7 µM. For the same molecule, the TGI is 85.6 µM in the test with SF-295 CNS, 43.8 µM with SK-MEL-28 melanoma and greater than 100 µM in the test on SR leukemia.
Turning to `Cn1cc(C2=C(c3ccccc3C(F)(F)F)C(=O)NC2=O)c2ccccc21`, the GI50 with 786-0 renal is 9.16 µM; with A549 NSCLC, 7.89 µM; with HCT-116 colon, 6.59 µM; in the test on HL-60(TB) leukemia, 6.87 µM; in the test on HOP-92 NSCLC, 17.2 µM; in the test with NCI-H522 lung, 11.6 µM. For the same molecule, the GI50 was 4.33 µM in the test on SF-295 CNS, 14.6 µM with SK-MEL-28 melanoma and 6.36 µM with SR leukemia. Moreover, the TGI was greater than 25 µM in the test with 786-0 renal; greater than 25 µM in the test with A549 NSCLC; greater than 25 µM in the test with HCT-116 colon; 17.5 µM with HL-60(TB) leukemia; greater than 25 µM with HOP-92 NSCLC; greater than 25 µM with NCI-H522 lung. Also, the TGI is greater than 17.2 µM with SF-295 CNS, greater than 25 µM in the test with SK-MEL-28 melanoma and greater than 22.2 µM with SR leukemia.
With `CCOc1ccc(C(C)=O)cc1NC(=O)c1cccc(-c2nnn(CC)n2)c1`, the GI50 in the test with 786-0 renal was 6.25 µM; in the test on A549 NSCLC, 0.892 µM; with EKVX NSCLC, 0.83 µM; in the test with HCT-116 colon, 0.419 µM; with HOP-92 NSCLC it was 0.418 µM; with NCI-H522 lung it was 0.147 µM. The GI50 was 0.306 µM in the test on SF-295 CNS, 4.75 µM in the test with SK-MEL-28 melanoma and 0.401 µM with SR leukemia. Besides, the TGI with 786-0 renal was 74.2 µM; with A549 NSCLC it was greater than 100 µM; with EKVX NSCLC, greater than 100 µM; in the test with HCT-116 colon, greater than 100 µM; in the test on HOP-92 NSCLC, 49.4 µM; in the test with NCI-H522 lung, 0.971 µM. Also, the TGI is 5.74 µM in the test with SF-295 CNS, greater than 100 µM in the test on SK-MEL-28 melanoma and greater than 100 µM in the test on SR leukemia.
Regarding `CCN(CC)c1ccc(/C=N/NC(=O)CSc2nc3ccccc3c(=O)n2Cc2ccc(S(N)(=O)=O)cc2)c(O)c1`, the GI50 is 1.84 µM with 786-0 renal; 1.57 µM in the test with A549 NSCLC; 0.65 µM in the test with EKVX NSCLC; 0.363 µM in the test on HCT-116 colon; 0.412 µM with HL-60(TB) leukemia; 2.4 µM with NCI-H522 lung. In addition, the GI50 with SF-295 CNS was 1.47 µM; in the test on SK-MEL-28 melanoma, 1.62 µM; in the test on SR leukemia it was 0.212 µM. In addition, the TGI was greater than 100 µM in the test on 786-0 renal; greater than 100 µM in the test on A549 NSCLC; greater than 100 µM in the test with EKVX NSCLC; greater than 100 µM in the test with HCT-116 colon; 5.38 µM in the test on HL-60(TB) leukemia; greater than 100 µM in the test on NCI-H522 lung. Besides, the TGI in the test on SF-295 CNS, in the test with SK-MEL-28 melanoma and in the test on SR leukemia was greater than 100 µM throughout.
With `OC12CCC3(O)c4ccccc4C3C1c1ccccc12` (configuration not stated), the TGI in the test with 786-0 renal, in the test on A549 NSCLC, with EKVX NSCLC, in the test on HCT-116 colon, with HL-60(TB) leukemia and in the test with NCI-H522 lung was greater than 100 µM throughout. The TGI with SF-295 CNS, in the test on SK-MEL-28 melanoma and in the test with SR leukemia was greater than 100 µM in each case.
For `O=C(/C(=N/Nc1ccccc1)c1ccc([N+](=O)[O-])cc1)c1ccc([N+](=O)[O-])cc1`, the TGI with 786-0 renal, with A549 NSCLC, in the test on EKVX NSCLC, in the test on HCT-116 colon, in the test on HOP-92 NSCLC and with NCI-H522 lung was greater than 100 µM each time. For the same molecule, the TGI with SF-295 CNS, in the test on SK-MEL-28 melanoma and with SR leukemia was greater than 100 µM each time.
On to `CC(=O)O[C@H](C[C@H](C(C)C)N(C)C(=O)[C@@H](NC(=O)[C@H]1CCCCN1C)C(C)C)c1cccc(C(=O)N[C@@H](Cc2ccccc2)C[C@H](C)C(=O)O)n1`, for which the GI50 in the test on 786-0 renal was 0.0463 µM; in the test on A549 NSCLC it was 0.0666 µM; with EKVX NSCLC, 0.255 µM; with HCT-116 colon, 0.0222 µM; with HL-60(TB) leukemia it was 0.0069 µM; in the test with HOP-92 NSCLC, 0.0183 µM. Moreover, the GI50 is 0.0116 µM in the test on NCI-H522 lung, 0.0333 µM in the test with SF-295 CNS and 0.00429 µM with SR leukemia. Besides, the TGI in the test on 786-0 renal was greater than 25 µM; in the test on A549 NSCLC, greater than 25 µM; in the test on EKVX NSCLC, greater than 25 µM; in the test on HCT-116 colon, greater than 8.59 µM; in the test with HL-60(TB) leukemia, 0.0321 µM; in the test on HOP-92 NSCLC, greater than 25 µM. Also, the TGI with NCI-H522 lung is 0.401 µM; in the test on SF-295 CNS, greater than 5.29 µM; in the test with SR leukemia it was greater than 25 µM.
Regarding `COc1cc(-c2cc3ncccc3c3[nH]c(=O)c4cccnc4c23)cc(OC)c1OC`, the GI50 is 0.722 µM in the test with 786-0 renal; 1.28 µM with A549 NSCLC; 0.818 µM with EKVX NSCLC; 12.2 µM in the test on HOP-92 NSCLC; 0.328 µM in the test on NCI-H522 lung; 0.379 µM with SF-295 CNS. The GI50 in the test on SK-MEL-28 melanoma is 0.957 µM; in the test with SR leukemia, 0.359 µM. Moreover, the TGI in the test on 786-0 renal is greater than 100 µM; in the test on A549 NSCLC, greater than 100 µM; in the test with EKVX NSCLC, greater than 100 µM; with HOP-92 NSCLC, greater than 100 µM; in the test with NCI-H522 lung, 82.5 µM; with SF-295 CNS, 25.4 µM. Besides, the figures for the TGI in the test on SK-MEL-28 melanoma and with SR leukemia were greater than 100 µM and 71.9 µM, respectively.
Take `COc1cc(Nc2ncnc(Nc3ccc4c(n3)NC(=O)C(C)(C)O4)n2)cc(OC)c1OC`: the GI50 in the test with 786-0 renal is 0.492 µM; with A549 NSCLC, 1.25 µM; in the test on HCT-116 colon, 3.95 µM; in the test with HL-60(TB) leukemia, 4.52 µM; in the test on HOP-92 NSCLC, 0.243 µM; with NCI-H522 lung, 0.625 µM. The GI50 is 0.754 µM in the test on SF-295 CNS, greater than 23.9 µM in the test with SK-MEL-28 melanoma and 2.24 µM with SR leukemia. The TGI in the test on 786-0 renal was greater than 22.6 µM; with A549 NSCLC it was greater than 100 µM; with HCT-116 colon it was greater than 100 µM; in the test on HL-60(TB) leukemia it was greater than 100 µM; in the test on HOP-92 NSCLC it was 1.71 µM; in the test with NCI-H522 lung it was 11.2 µM. Further, the TGI in the test on SF-295 CNS, in the test on SK-MEL-28 melanoma and in the test on SR leukemia was greater than 100 µM in each case.
With `COc1cccc(NC(=O)c2sc3nc4c(cc3c2N)C(O)CCC4)c1` (configuration not stated), the GI50 was 0.503 µM in the test on 786-0 renal; 0.287 µM with A549 NSCLC; 0.117 µM in the test on HCT-116 colon; 0.0534 µM in the test with HL-60(TB) leukemia; 0.169 µM with HOP-92 NSCLC; 0.105 µM in the test with NCI-H522 lung. The GI50 is 0.157 µM in the test with SF-295 CNS, 0.787 µM with SK-MEL-28 melanoma and 0.0432 µM in the test on SR leukemia. The TGI was greater than 100 µM with 786-0 renal; greater than 100 µM with A549 NSCLC; greater than 100 µM in the test with HCT-116 colon; 0.534 µM with HL-60(TB) leukemia; 23 µM in the test on HOP-92 NSCLC; 2.57 µM in the test with NCI-H522 lung. In addition, the figures for the TGI with SF-295 CNS, with SK-MEL-28 melanoma and with SR leukemia were greater than 92.2 µM, greater than 100 µM and greater than 100 µM, respectively.
In the case of `Cc1ccccc1N=Nc1c(-c2ccccc2)nn(C(=O)CC(=O)Nc2cccc(Cl)c2)c1-c1ccccc1`, the TGI in the test on 786-0 renal is greater than 31.6 µM; in the test with EKVX NSCLC, greater than 31.6 µM; in the test on HCT-116 colon, 17.8 µM; with HL-60(TB) leukemia, 24.5 µM; in the test on HOP-92 NSCLC it was greater than 100 µM; with SF-295 CNS, greater than 31.6 µM. For the same molecule, the TGI with SK-MEL-28 melanoma is greater than 31.6 µM; in the test with SR leukemia, 20.3 µM.
Take `Nc1ccccc1C(=O)NC(=O)Nc1ccc(Oc2ncc(Br)cn2)c(Cl)c1`: the TGI in the test on 786-0 renal was 3.58 µM; with A549 NSCLC, 13.4 µM; in the test on EKVX NSCLC it was 29.6 µM; in the test with HCT-116 colon, 12.1 µM; in the test on HL-60(TB) leukemia it was 0.0451 µM and 0.232 µM; in the test on HOP-92 NSCLC, 6.66 µM. Moreover, the figures for the TGI with SF-295 CNS, with SK-MEL-28 melanoma and in the test on SR leukemia were 0.127 µM, 18.3 µM and 1.5 µM, respectively. The GI50 is 0.0198 µM with EKVX NSCLC, 0.00489 µM with HL-60(TB) leukemia and 0.303 µM in the test with HOP-92 NSCLC.
As for `c1ccc(C2CC(c3ccc4ccccc4c3)=Nc3ccccc3S2)cc1` (configuration not stated), the TGI in the test with 786-0 renal worked out at 30.2 µM; in the test with A549 NSCLC, 38.8 µM; with EKVX NSCLC, 50.7 µM; in the test on HCT-116 colon, 30 µM; with HL-60(TB) leukemia, 55.9 µM; in the test on NCI-H522 lung it was 33.2 µM. For the same molecule, the TGI with SF-295 CNS was 31.7 µM; with SK-MEL-28 melanoma, 33.1 µM; with SR leukemia, greater than 100 µM.
For `Nc1ccc(-c2ccc3ncc4ccc(=O)n(-c5cccc(C(F)(F)F)c5)c4c3c2)cn1`, the GI50 in the test with 786-0 renal is less than 0.01 µM; in the test on A549 NSCLC it was less than 0.01 µM; with HCT-116 colon, 0.0135 µM; in the test with HL-60(TB) leukemia, 0.0408 µM; with HOP-92 NSCLC it was less than 0.01 µM; in the test with NCI-H522 lung, less than 0.01 µM. Further, the GI50 in the test on SF-295 CNS, in the test on SK-MEL-28 melanoma and with SR leukemia was less than 0.01 µM each time. Besides, the TGI in the test with 786-0 renal is 0.423 µM; in the test with A549 NSCLC, 2.6 µM; in the test on HCT-116 colon, 1.41 µM; in the test with HL-60(TB) leukemia, 8.66 µM; with HOP-92 NSCLC it was less than 0.0226 µM; in the test on NCI-H522 lung, 2.03 µM. Also, the TGI in the test on SF-295 CNS stood at 1.19 µM; in the test on SK-MEL-28 melanoma, 11.5 µM; with SR leukemia it was 0.56 µM.

Source of the values: PubChem BioAssay (NCI).
